{"source": "patent US20040265847A1", "about": "“Method for treating Alzheimer's disease” (priority 1991, published 2004)", "key": {"APP-degrading protease": {"tested_on": "APP-degrading protease", "assay": "Assay of APP-degrading protease (Zn^2+-enhanced degradation of plasma 130 kDa APP)", "assay_type": "biochemical, human", "conditions": "heparin-Sepharose eluates, 37° C."}, "trypsin": {"tested_on": "trypsin", "assay": "tryptic activity on fluorogenic substrate Z-F-R-AMC", "assay_type": "biochemical", "conditions": "range of doses"}, "[1]": {"target": "T1, APP purified from rat brain (Rattus norvegicus, UniProt P08592)", "T1 construct": "from tissue; host or cells: rat brain", "T1 sequence (P08592 18-770)": "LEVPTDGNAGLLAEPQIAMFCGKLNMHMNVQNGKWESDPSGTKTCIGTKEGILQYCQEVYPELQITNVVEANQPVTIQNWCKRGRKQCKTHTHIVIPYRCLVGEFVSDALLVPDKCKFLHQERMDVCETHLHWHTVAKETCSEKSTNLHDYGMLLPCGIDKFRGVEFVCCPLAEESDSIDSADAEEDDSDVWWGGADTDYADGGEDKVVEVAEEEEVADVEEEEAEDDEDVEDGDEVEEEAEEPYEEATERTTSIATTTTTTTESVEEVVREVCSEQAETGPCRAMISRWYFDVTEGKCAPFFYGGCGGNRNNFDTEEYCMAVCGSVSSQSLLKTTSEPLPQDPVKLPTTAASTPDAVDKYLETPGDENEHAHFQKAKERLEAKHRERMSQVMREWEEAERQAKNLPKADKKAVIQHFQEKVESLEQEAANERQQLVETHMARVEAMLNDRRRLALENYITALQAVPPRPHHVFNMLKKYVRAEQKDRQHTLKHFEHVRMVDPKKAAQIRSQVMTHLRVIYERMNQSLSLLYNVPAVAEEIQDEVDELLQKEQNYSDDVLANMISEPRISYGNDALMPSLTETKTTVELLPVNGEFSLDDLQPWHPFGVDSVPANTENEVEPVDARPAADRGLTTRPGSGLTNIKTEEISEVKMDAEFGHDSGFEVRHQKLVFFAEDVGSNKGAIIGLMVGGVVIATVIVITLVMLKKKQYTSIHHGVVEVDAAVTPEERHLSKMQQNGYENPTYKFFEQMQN", "assay": "heparin binding to APP in a Biosensor system", "experimental": "The effect of Zn^2+ in modulating heparin binding to APP was also studied in a Biosensor system. […] This effect was most pronounced and most specific for Zn^2+, as opposed to the absence of divalent cations or the presence of Ca^2+, Mg^2+ or Co^2+, and was most evident when the heparin:APP ratio was low. […] Zn^2+ at 50 nM promoted a =170% increase in heparin binding, the effect saturating at 70 μM."}, "[2]": {"tested_on": "human brain membrane-derived APP", "assay": "trypsin digestion of human brain membrane-derived APP, Western blot with 22C11", "assay_type": "biochemical", "description": "The proteolytic activity of trypsin (Boehringer, Mannheim) was studied to determine whether it was modulated by a range of doses of heparin (Sigma) and ZnCl2. […] Western blots for APP using the APP binding monoclonal antibody 22C11 were used to monitor the progression of the proteolytic reaction and to detect breakdown products."}, "[3]": {"target": "T2, partially purified human serum APP (Homo sapiens, UniProt P05067)", "T2 construct": "from tissue; host or cells: human serum", "T2 sequence (P05067 18-687 limits assumed)": "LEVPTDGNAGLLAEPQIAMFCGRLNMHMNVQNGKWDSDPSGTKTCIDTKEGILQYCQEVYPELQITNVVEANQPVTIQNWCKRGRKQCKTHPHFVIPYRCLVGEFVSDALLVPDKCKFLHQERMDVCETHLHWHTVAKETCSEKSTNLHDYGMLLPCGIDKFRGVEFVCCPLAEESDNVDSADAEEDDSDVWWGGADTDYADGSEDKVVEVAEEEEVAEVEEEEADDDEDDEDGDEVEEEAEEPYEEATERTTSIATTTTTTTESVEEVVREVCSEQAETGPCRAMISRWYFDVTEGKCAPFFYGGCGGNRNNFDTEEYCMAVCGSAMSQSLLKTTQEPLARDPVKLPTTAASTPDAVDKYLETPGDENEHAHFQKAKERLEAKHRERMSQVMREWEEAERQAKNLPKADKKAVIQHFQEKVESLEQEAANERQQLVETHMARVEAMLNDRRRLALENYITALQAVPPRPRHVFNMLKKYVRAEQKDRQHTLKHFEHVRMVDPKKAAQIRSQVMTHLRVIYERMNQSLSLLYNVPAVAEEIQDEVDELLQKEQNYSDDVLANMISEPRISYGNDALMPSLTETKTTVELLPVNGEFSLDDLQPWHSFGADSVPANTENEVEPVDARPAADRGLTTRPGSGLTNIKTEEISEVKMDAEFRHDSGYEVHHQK", "assay": "partially purified serum APP binding to heparin-Sepharose", "experimental": "40-60 ml of whole blood was allowed to clot for 3 hours in plain tubes at 20° C. The clotted blood was then incubated for 16 hours at 4° C., whereupon it was centrifuged at 1500 g for 15 minutes and the supernatant removed. The serum was further centrifuged at 1500 g for 15 minutes and the cell-free supernatant removed.\nAPP binding to heparin-Sepharose was also studied using partially purified APP preparations derived from human brain membranes (according to the method of Moir et al, 1992) or from human serum. Washed brain membrane extract or human serum was adjusted to a NaCl concentration of 350 mM and applied to a Q-Sepharose column (5 cm×5 cm), washed with 350 mM NaCl, 50 mM Tris-Hcl, pH 7.4 (250 ml [×2 for brain membrane extract]) and eluted with 1 M NaCl 50 mM Tris-HCl, pH 7.4 (200 ml at 5 ml/min). This procedure causes an 80-fold enrichment of APP in the peak protein fractions, which are then pooled (Moir et al, 1992). The eluate (20 ml) was desalted into 25 mM Tris, pH 7.4 (30 ml) using a G25 Sephadex column (2.6 cm×40 cm). 15 ml of the product was adjusted to 50 μM Zn^2+ with 2 mM ZnCl2, 50 mM Tris-Hcl, pH 7.4 and the other 15 ml was adjusted to the same volume with 50 mM Tris-HCl, pH 7.4. 10 ml of the deslated Q-Sepharose eluate, containing 6.7 mg protein, was applied to heparin-Sepharose (1.6 cm×5 cm) at 0.35 ml/min, washed with 100 ml of loading buffer, and eluted by a 0 to 1500 mM NaCl gradient (±50 μM Zn^2+) in 52.5 ml at a flow rate of 0.35 ml/min. […] The immunoreactive staining of the 130 kDa APP species seen on the blots was quantified by computer-assisted image capture reflectance densitometry (Bush et al., 1992). The 130 kDa reflectance signals on the blots were expressed as the ratio of the signal generated in one sample lane related to the 130 kDa APP reflectance reading of a sample of starting material present on every individual filter as an internal standard."}, "[4]": {"tested_on": "human brain full-length APP", "assay": "^125I-APP binding to heparin-Sepharose", "experimental": "100 kDa human brian full-length APP was iodinated by the Chloramine-T method. Iodinated APP (^125I-APP) was then separated from labelling reagents by Sephacryl G25 chromatography.\nThe column was then washed with 6 ml buffer 1 and the APP eluted with aliquots of high-NaCl buffers."}, "[5]": {"target": "T3, partially purified human brain APP (Homo sapiens, UniProt P05067)", "T3 construct": "from tissue; host or cells: human brain membrane extract", "T3 sequence (P05067 18-770)": "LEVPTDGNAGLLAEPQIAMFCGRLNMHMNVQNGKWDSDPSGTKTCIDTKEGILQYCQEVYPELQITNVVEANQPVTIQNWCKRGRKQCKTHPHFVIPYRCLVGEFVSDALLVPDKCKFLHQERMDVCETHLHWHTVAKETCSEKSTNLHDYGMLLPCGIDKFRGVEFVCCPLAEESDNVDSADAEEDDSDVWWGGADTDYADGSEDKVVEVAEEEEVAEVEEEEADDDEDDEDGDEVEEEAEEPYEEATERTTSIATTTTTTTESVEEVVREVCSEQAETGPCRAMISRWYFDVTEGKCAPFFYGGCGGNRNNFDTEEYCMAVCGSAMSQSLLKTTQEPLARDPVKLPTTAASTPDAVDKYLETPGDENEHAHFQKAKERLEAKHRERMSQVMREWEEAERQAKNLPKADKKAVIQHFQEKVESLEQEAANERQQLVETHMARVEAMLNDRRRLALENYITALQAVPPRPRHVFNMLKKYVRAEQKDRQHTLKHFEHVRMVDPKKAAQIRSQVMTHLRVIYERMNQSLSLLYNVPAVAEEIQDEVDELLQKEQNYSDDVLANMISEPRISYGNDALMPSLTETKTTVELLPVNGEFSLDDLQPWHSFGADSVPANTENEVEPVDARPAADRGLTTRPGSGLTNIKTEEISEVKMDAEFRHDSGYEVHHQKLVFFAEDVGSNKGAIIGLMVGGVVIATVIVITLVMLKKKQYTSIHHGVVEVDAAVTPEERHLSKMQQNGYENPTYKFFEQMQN", "assay": "partially purified brain APP binding to heparin-Sepharose, NaCl gradient elution", "experimental": "APP binding to heparin-Sepharose was also studied using partially purified APP preparations derived from human brain membranes (according to the method of Moir et al, 1992) or from human serum. Washed brain membrane extract or human serum was adjusted to a NaCl concentration of 350 mM and applied to a Q-Sepharose column (5 cm×5 cm), washed with 350 mM NaCl, 50 mM Tris-Hcl, pH 7.4 (250 ml [×2 for brain membrane extract]) and eluted with 1 M NaCl 50 mM Tris-HCl, pH 7.4 (200 ml at 5 ml/min). This procedure causes an 80-fold enrichment of APP in the peak protein fractions, which are then pooled (Moir et al, 1992). The eluate (20 ml) was desalted into 25 mM Tris, pH 7.4 (30 ml) using a G25 Sephadex column (2.6 cm×40 cm). 15 ml of the product was adjusted to 50 μM Zn^2+ with 2 mM ZnCl2, 50 mM Tris-Hcl, pH 7.4 and the other 15 ml was adjusted to the same volume with 50 mM Tris-HCl, pH 7.4. 10 ml of the deslated Q-Sepharose eluate, containing 6.7 mg protein, was applied to heparin-Sepharose (1.6 cm×5 cm) at 0.35 ml/min, washed with 100 ml of loading buffer, and eluted by a 0 to 1500 mM NaCl gradient (±50 μM Zn^2+) in 52.5 ml at a flow rate of 0.35 ml/min. Fractions (1 ml) representing 20 mM NaCl increments were collected and 30 μl samples of each fraction were assayed for APP by Western blot with mAb 22C11 according to the method in Bush et al. (1990), modified by using PVDF membranes and by reducing the blocking time to 1 hour. The immunoreactive staining of the 130 kDa APP species seen on the blots was quantified by computer-assisted image capture reflectance densitometry (Bush et al., 1992). The 130 kDa reflectance signals on the blots were expressed as the ratio of the signal generated in one sample lane related to the 130 kDa APP reflectance reading of a sample of starting material present on every individual filter as an internal standard."}}}
{"smiles": "[Cl-].[Cl-].[Zn+2]", "note": "[Zn^2+, ZnCl2]", "values": [{"measurement": "effect on proteolysis of plasma APP", "setting": "APP-degrading protease", "value": "Proteolysis was accelerated"}, {"measurement": "effect on tryptic activity", "setting": "trypsin", "value": "left tryptic activity unaltered"}, {"measurement": "concentration at which effect on heparin binding saturates", "setting": "[1]", "value": 70, "unit": "µM"}, {"measurement": "effect on heparin binding to APP", "setting": "[1]; 100 μM", "value": "strongly promote heparin binding to APP"}, {"measurement": "increase in heparin binding to rat brain APP", "setting": "[1]; Zn^2+ at 50 nM", "value": 170, "unit": "%"}, {"measurement": "Zn^2+ concentration that completely abolished the protective effect of heparin", "setting": "[2]; with heparin (1 μM)", "value": "above 1 μM"}, {"measurement": "effect on rate of APP proteolysis by trypsin", "setting": "[2]; without heparin, Zn^2+ up to 100 μM, EDTA 1 mM", "value": "had no effect"}, {"measurement": "effect on proportion of higher-affinity binding of serum-derived APP", "setting": "[3]", "value": "did not increase the proportion of higher-affinity binding"}, {"measurement": "increase in APP recovered from the NaCl elution", "setting": "[3]; 50 μm Zn^2+", "value": 10, "unit": "%"}, {"measurement": "increase in amount of protein recovered", "setting": "[3]; 50 μm Zn^2+, protein assay", "value": 12, "unit": "%"}, {"measurement": "concentration at which increase in ^125I-APP binding to heparin reached a plateau", "setting": "[4]", "value": 75, "unit": "µM"}, {"measurement": "increase in ^125I-APP recovered from the 50-2000 mM NaCl elution fraction", "setting": "[4]; 50 μM Zn^2+", "value": "approximately 3 fold"}, {"measurement": "increase in amount of brain APP binding to heparin", "setting": "[4]; 50 μM Zn^2+", "value": 50, "unit": "%"}, {"measurement": "increase in ^125I-APP recovered from the 50-2000 mM NaCl elution fraction", "setting": "[4]; 100 μM Zn^2+", "value": 4.5, "unit": "fold"}, {"measurement": "increase in amount of APP recovered in all fractions", "setting": "[5]; 50 μM Zn^2+", "value": 48, "unit": "%"}, {"measurement": "amount of APP recovered in all fractions", "setting": "[5]; 50 μM Zn^2+ (1110 without)", "value": 1644, "unit": "reflectance units"}, {"measurement": "reduction in amount of eluted protein", "setting": "[5]; 50 μM Zn^2+, protein assay", "value": 13, "unit": "%"}]}
